The source of these data is ChEMBL document CHEMBL1153188, “Quinoline-3-carboxamide containing sulfones as liver X receptor (LXR) agonists with binding selectivity for LXRbeta and low blood-brain penetration” (Bioorg Med Chem Lett, 2010).

Data set [1] has as its target T1, Oxysterols receptor LXR-alpha (Homo sapiens, UniProt Q13133).
T1 sequence (Q13133 whole entry): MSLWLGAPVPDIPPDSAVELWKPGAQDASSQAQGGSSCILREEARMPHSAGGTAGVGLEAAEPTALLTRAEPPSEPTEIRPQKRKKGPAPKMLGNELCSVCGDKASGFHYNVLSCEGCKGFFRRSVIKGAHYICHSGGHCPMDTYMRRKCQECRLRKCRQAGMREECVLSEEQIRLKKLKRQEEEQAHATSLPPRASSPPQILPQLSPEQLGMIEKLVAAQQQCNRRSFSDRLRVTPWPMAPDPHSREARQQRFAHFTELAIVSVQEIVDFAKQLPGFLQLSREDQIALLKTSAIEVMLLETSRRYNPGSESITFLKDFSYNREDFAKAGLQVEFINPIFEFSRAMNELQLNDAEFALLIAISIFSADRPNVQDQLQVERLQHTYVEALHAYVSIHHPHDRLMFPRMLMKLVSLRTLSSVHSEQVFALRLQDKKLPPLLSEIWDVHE
The experiment in a line: Displacement of [3H]TO901317 from human recombinant LXRalpha expressed in Escherichia coli by flashplate method. In general terms: Loss of bound radioactivity is the signal in a displacement assay; it reports binding, not function.

In data set [2] the target is T2, Oxysterols receptor LXR-beta (Homo sapiens, UniProt P55055). The experiment in a line: Displacement of [3H]TO901317 from human recombinant LXRbeta expressed in Escherichia coli by flashplate method.
Data set [3] has as its system THP-1. The experiment in a line: Stimulation of [3H]cholesterol efflux in human THP1 foam cells loaded with ac-LDL relative to TO901317. Type of data set: functional, cell-based.
Data set [4] deals with T2, Oxysterols receptor LXR-beta.
The subject of data set [5] is HepG2. The experiment in a line: Effect on triglyceride accumulation in human HepG2 cells. Type of data set: functional, cell-based.
Data set [6] concerns THP-1. The experiment in a line: Effect on ABCA1 gene expression in human differentiated THP1 cells. Type of data set: functional, cell-based.
For data set [7], the system named is HepG2. The experiment in a line: Effect on triglyceride accumulation in human HepG2 cells relative to TO901317. Type of data set: functional.
Data set [8] deals with T1, Oxysterols receptor LXR-alpha.
The subject of data set [9] is THP-1. The experiment in a line: Effect on ABCA1 gene expression in human differentiated THP1 cells relative to TO901317. Type of data set: functional.
Data set [10] can be described thus: Ratio of AUC (0 to infinity) in brain to AUC (0 to infinity) in plasma in Long Evans rat at 10 mg/kg, po. The following applies: brain and plasma. Type of data set: ADME, organism-based. Further details: dose 10 mg/kg, route oral.
A short description of data set [11]: Cmax in Long Evans rat brain at 10 mg/kg, po. Type of data set: ADME, organism-based. The arrangement: dose 10 mg/kg, route oral.
Data set [12] can be described thus: Cmax in Long Evans rat plasma at 10 mg/kg, po. The class given is ADME, organism-based. Further details: dose 10 mg/kg, route oral.
Data set [13] deals with Plasma. The experiment in a line: AUC (0 to infinity) in Long Evans rat plasma at 10 mg/kg, po. The class given is ADME, organism-based. The arrangement: time infinity, dose 10 mg/kg, route oral. The following applies: in vivo.
Data set [14] deals with Plasma. The experiment in a line: AUC (0 to infinity) in Long Evans rat brain at 10 mg/kg, po. Type of data set: ADME, organism-based. The arrangement: time infinity, dose 10 mg/kg, route oral. The following applies: in vivo.
Data set [15] has as its system THP-1. The experiment in a line: Stimulation of [3H]cholesterol efflux in human THP1 foam cells loaded with ac-LDL. The class given is functional, cell-based.
The test system of data set [16] is Plasma. The experiment in a line: AUC (0 to infinity) in Long Evans rat brain at 30 mg/kg, po. The class given is ADME, organism-based. The arrangement: time infinity, dose 30 mg/kg, route oral. To be noted: in vivo.
The subject of data set [17] is Plasma. The experiment in a line: AUC (0 to infinity) in Long Evans rat plasma at 30 mg/kg, po. The class given is ADME, organism-based. Further details: time infinity, dose 30 mg/kg, route oral. The following applies: in vivo.
A short description of data set [18]: Cmax in Long Evans rat brain at 30 mg/kg, po. Type of data set: ADME, organism-based. The arrangement: dose 30 mg/kg, route oral.
The nature of data set [19]: Cmax in Long Evans rat plasma at 30 mg/kg, po. Type of data set: ADME, organism-based. The arrangement: dose 30 mg/kg, route oral.
Data set [20] in a line: Ratio of AUC (0 to infinity) in brain to AUC (0 to infinity) in plasma in Long Evans rat at 30 mg/kg, po. The class given is ADME, organism-based. The arrangement: dose 30 mg/kg, route oral. To be noted: brain and plasma.

Where only a bound is given, the exact number is not on record here.

T2 sequence (P55055 whole entry): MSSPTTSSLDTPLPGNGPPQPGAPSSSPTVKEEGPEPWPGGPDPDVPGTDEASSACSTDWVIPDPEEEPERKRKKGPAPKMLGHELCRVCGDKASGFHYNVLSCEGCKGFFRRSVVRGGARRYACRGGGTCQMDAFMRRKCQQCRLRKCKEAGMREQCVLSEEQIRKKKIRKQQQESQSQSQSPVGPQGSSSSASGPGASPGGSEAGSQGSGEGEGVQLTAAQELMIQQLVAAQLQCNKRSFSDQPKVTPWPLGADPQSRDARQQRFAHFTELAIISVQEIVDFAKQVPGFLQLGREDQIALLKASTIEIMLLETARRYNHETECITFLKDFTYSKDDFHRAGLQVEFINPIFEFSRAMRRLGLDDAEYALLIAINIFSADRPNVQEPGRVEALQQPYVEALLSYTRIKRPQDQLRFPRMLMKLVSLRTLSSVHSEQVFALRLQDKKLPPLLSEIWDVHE

Consider `CS(=O)(=O)c1cc(F)cc(Oc2cccc(-c3c(C(N)=O)cnc4c(C(F)(F)F)cccc34)c2)c1`, for which the IC50 (in general, the concentration at which inhibition is half-maximal) in data set [1] is 552 nM; in [2] it was 18 nM.

For `CS(=O)(=O)c1cccc(Oc2cccc(-c3c(C(N)=O)cnc4c(F)cccc34)c2)c1`, the figures for the IC50 in data set [1] and in data set [2] were 12700 nM and 590 nM, respectively.

`CS(=O)(=O)c1cccc(Oc2cccc(-c3c(C(N)=O)cnc4ccccc34)c2)c1`: the values for the IC50 in [1] and in data set [2] were above 10000 nM and 2850 nM, respectively.

Turning to `CCCS(=O)(=O)c1cccc(Oc2cccc(-c3c(C(N)=O)cnc4c(C(F)(F)F)cccc34)c2)c1`, the IC50 was found to be 1360 nM in [1] and 57 nM in data set [2].

For the compound `CS(=O)(=O)c1cccc(Oc2cccc(-c3c(C#N)cnc4c(C(F)(F)F)cccc34)c2)c1`, the IC50 in data set [1] stood at 13.4 nM; in [2] it was 2.2 nM.

In the case of `O=C(O)Cc1ccc(COc2cccc(-c3c(Cc4ccccc4)cnc4c(C(F)(F)F)cccc34)c2)cc1`, the Activity with THP-1 [3] was determined as 88%.

As to `CCS(=O)(=O)c1cccc(Oc2cccc(-c3c(C(N)=O)cnc4c(C(F)(F)F)cccc34)c2)c1`, the IC50 in data set [1] came to 453 nM; in data set [2], 11 nM.

As to `CS(=O)(=O)c1cccc(Oc2cccc(-c3c(C(N)=O)cnc4c(C(F)(F)F)cccc34)c2)c1`, the EC50 (as a rule, the concentration that produces a half-maximal response) in [4] came out at 1600 nM; in the data set on HepG2 [5], 370 nM; in the data set with THP-1 [6], 110 nM; in data set [8] it was 4500 nM. The Efficacy in the data set on HepG2 [7] was found to be 47%; in the data set with THP-1 [9], 104%. In addition, the IC50 is 600 nM in data set [1] and 18 nM in data set [2].

Turning to `CS(=O)(=O)c1cccc(Oc2cccc(-c3c(C(N)=O)cnc4c(Cl)cccc34)c2)c1`, the EC50 in data set [4] came out at 630 nM; with HepG2 [5] it was 1250 nM; in the data set on THP-1 [6], 440 nM; in [8] it was 3000 nM; in the data set with THP-1 [15] it was 10 nM. In the data set on THP-1 [3], the Activity is 71%. In data set [10], the Kp (in general, the ratio of the level in a tissue or fluid to that in plasma or blood) came out at 0.08. Moreover, the Cmax – broadly, the peak of the concentration-time curve – in [11] worked out at 107 ng/mL; in data set [12], 1270 ng/mL. Besides, the Efficacy in the data set on HepG2 [7] came to 68%; in the data set on THP-1 [9], 107%. Also, the AUC was determined as 5417 ng/mL in the data set on Plasma [13] and 457 ng/mL in the data set with Plasma [14]. Also, the IC50 came out at 543 nM in [1] and 16 nM in data set [2].

In the case of `CC(C)S(=O)(=O)c1cccc(Oc2cccc(-c3c(C(N)=O)cnc4c(C(F)(F)F)cccc34)c2)c1`, the figures for the IC50 in data set [1] and in [2] were 286 nM and 5 nM, respectively.

Take `CNC(=O)c1cnc2c(C(F)(F)F)cccc2c1-c1cccc(Oc2cccc(S(C)(=O)=O)c2)c1`: the IC50 in data set [1] is above 10000 nM; in data set [2] it was 367 nM.

For the compound `Fc1ccc(-c2c3cccc(C(F)(F)F)c3nn2Cc2ccc(F)cc2Cl)cc1` [LXR-623], the AUC came to 15312 ng/mL with Plasma [16] and 13057 ng/mL with Plasma [17]. In the data set on HepG2 [5], this compound had an EC50 of 1000 nM. Further, the Efficacy with HepG2 [7] was determined as 38%; with THP-1 [9] it was 100%. The Cmax in data set [18] came out at 3530 ng/mL; in [19], 2850 ng/mL. Also, the Kp in data set [20] was determined as 1.2.

For `CS(=O)(=O)c1cccc(Oc2cccc(-c3c(-n4cnnn4)cnc4c(C(F)(F)F)cccc34)c2)c1`, the values for the IC50 in data set [1] and in data set [2] were 26600 nM and 5290 nM, respectively.

Regarding `CCOC(=O)c1cnc2c(C(F)(F)F)cccc2c1-c1cccc(Oc2cccc(S(C)(=O)=O)c2)c1`, the IC50 in data set [1] was found to be 6.6 nM; in [2], 2 nM.

For the compound `Cc1cccc2c(-c3cccc(Oc4cccc(S(C)(=O)=O)c4)c3)c(C(N)=O)cnc12`, the IC50 in data set [1] stood at 756 nM; in [2], 28 nM.

On to `CS(=O)(=O)c1cccc(Oc2cccc(-c3c(CN)cnc4c(C(F)(F)F)cccc34)c2)c1`, for which the figures for the IC50 in data set [1] and in data set [2] were 445 nM and 77 nM, respectively.

Consider `CS(=O)(=O)c1cc(Cl)cc(Oc2cccc(-c3c(C(N)=O)cnc4c(C(F)(F)F)cccc34)c2)c1`, for which the IC50 in data set [1] was determined as 1770 nM; in data set [2], 62 nM.

For the compound `CS(=O)(=O)c1cccc(Oc2cccc(-c3c(C(=N)N)cnc4c(C(F)(F)F)cccc34)c2)c1`, the values for the IC50 in data set [1] and in data set [2] were 29800 nM and 5130 nM, respectively.

Turning to `CS(=O)(=O)c1cccc(Oc2cccc(-c3c(C(=O)O)cnc4c(C(F)(F)F)cccc34)c2)c1`, the IC50 worked out at 6350 nM in data set [1] and 1080 nM in [2].

`CCNC(=O)c1cnc2c(C(F)(F)F)cccc2c1-c1cccc(Oc2cccc(S(C)(=O)=O)c2)c1`: the IC50 in data set [1] worked out at 6860 nM; in data set [2] it was 730 nM.
